Measurements published in patent publication US7647217B2, “Structure of the farnesoid X receptor ligand binding domain and methods of use therefor” (The Salk Institute for Biological Studies, priority 2002, dated 2010).

Columns and labels:
mouse FXR = molecular target: T1, mouse FXR (Mus musculus, UniProt Q60641); test: CV-1 transient transfection assay with natural promoters of FXR targets (hIBABP, hPLTP, hMRP-2); assay type: cell-based; details: for activation of IBABP promoter: hIBABP promoter; for concentration of maximum efficacy / activity on natural promoters: hIBABP, hPLTP, hMRP-2 promoters
T1 construct: expressed in transfected cells; host or cells: CV-1 (monkey)
T1 sequence (Q60641 1-488): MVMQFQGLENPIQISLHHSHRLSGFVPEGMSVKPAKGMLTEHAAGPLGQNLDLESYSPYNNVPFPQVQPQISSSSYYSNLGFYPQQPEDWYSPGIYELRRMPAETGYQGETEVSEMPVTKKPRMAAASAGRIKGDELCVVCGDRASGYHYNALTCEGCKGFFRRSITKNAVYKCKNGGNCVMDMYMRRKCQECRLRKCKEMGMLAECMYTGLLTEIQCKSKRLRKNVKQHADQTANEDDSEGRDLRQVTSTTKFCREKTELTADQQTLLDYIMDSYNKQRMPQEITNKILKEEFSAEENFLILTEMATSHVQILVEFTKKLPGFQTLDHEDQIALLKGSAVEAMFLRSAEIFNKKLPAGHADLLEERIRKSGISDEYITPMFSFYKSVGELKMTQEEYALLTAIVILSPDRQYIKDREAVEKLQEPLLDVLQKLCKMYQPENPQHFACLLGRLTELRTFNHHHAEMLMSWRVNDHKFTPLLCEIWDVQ
T1 sequence (P19793 1-462 partner): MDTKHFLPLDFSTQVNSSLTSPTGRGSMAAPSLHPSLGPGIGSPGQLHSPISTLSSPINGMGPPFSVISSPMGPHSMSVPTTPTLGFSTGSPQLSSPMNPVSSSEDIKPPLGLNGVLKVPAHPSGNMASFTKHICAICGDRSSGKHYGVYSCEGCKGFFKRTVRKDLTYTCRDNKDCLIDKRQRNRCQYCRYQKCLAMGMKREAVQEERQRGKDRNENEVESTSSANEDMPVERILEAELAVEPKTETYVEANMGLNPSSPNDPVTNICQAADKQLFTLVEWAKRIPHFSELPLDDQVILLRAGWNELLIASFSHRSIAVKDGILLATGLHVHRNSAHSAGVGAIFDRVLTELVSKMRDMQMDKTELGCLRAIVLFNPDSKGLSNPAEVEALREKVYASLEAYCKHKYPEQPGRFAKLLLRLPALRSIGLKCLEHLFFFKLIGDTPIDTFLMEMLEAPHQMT
Experimental: FIGS. 2A-2F collectively show the results of ligand activation of CV-1 cells co-transfected with FXR constructs pCMX-mFXR and pCMX-hRXR and a luciferase reporter gene containing various promoters as follows: FIG. 2A with a minimal TK promoter, FIG. 2B with a TK-ECRE*6 promoter, FIG. 2C with a TK-ER8*2 promoter, FIG. 2D with HIBABP promoter, FIG. 2E with a hPLTP promoter, or FIG. 2 with a FhMRP-2 promoter.
(§1) For transfection of these constructs, monkey CV-1 HEPG2 and HEK293T cells were grown in DMEM supplemented with 10% FBS, 50 U/ml penicillin G, and 50 μg/ml streptomycin sulfate at 37° C. in 7% CO2. CV-1 cells (60%-70% confluence, 48-well plate) were cotransfected with 16.6 ng of the appropriate expression vector, 100 ng of reporter plasmid, and 100 ng of pCMX-LacZ in 200 μl of DMEM containing 10% FBS by the N-[1-(2,3-dioleoyloxy)propyl]-N,N,N-trimethylammonium methylsulfate (DOTAP)-mediated procedure. After 24 hr, the medium was replaced, and cells were harvested and assayed for luciferase activity 36-48 hr after transfection. The luciferase activity was normalized to the level of β-galactosidase activity. Each transfection was performed in triplicate and repeated at least three times.
For this study, the following gene promoters were used: intestinal bile acid binding protein (IBABP; see, for example, Grober et al. (1999). Identification of a bile acid-responsive element in the human ileal bile acid-binding protein gene. Involvement of the farnesoid X receptor/9-is-retinoic acid receptor heterodimer. J Biol Chem. 274(42), 29749-54>, phospholipid transfer protein (PLTP) (Urizar et al (2000). The farnesoid X-activated receptor mediates bile acid activation of phospholipid transfer protein gene expression. J Biol Chem. 275(50), 39313-7) and multidrug resistance related protein 2 (MRP-2) (Kast et al. (2002), supra), which are all well characterized targets of FXR. The natural promoters of both the IBABP and PLTP genes contain one copy of an inverted repeat with a one base spacing (IR-1) while MRP-2 contains an ER-8 element. […] The most robust activation (28-fold) was seen on the IBABP promoter. Less robust (2-3 fold) but specific activation was observed on the PLTP and MRP-2 promoters.

GAL4-FXR LBD = molecular target: T2, GAL4-FXR LBD (Rattus norvegicus, UniProt Q62735); test: GAL4 DBD-FXR LBD chimeric receptor transcriptional activation assay (with/without RXR); assay type: cell-based; details: for activation of chimeric FXR construct: in the presence and absence of RXR; for selectivity for FXR relative to other NHRs: chimeric NHR constructs; for efficacy compared with GW4064: in the absence of RXR
T2 construct: expressed in transfected cells; host or cells: CV-1 (monkey)
T2 sequence (Q62735 245-469 limits assumed): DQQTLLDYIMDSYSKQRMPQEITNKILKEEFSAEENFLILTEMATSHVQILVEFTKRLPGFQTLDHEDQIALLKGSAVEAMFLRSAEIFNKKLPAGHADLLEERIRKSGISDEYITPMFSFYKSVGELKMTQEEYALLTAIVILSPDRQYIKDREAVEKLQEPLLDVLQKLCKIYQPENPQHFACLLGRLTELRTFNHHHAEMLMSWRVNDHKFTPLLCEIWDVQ
Experimental: FIGS. 3A-3E collectively show the results of ligand activation of CV-1 cells co-transfected with a luciferase reporter gene with a variety of receptor expression constructs. […] FIGS. 3C-3E show the results of CV-1 cells transiently transfected with the indicated reporter constructs, treated with either DMSO or 10 μM of the compounds fexaramine (3C), fexarine (3D), fexarene (3E). Reporter activity was normalized to the internal control and the data plotted as fold activation relative to untreated cells. All transfections contained CMX-βgal as an internal control.
The expression plasmids pCMX, pCMX-LacZ, pCMX-mFXRFL, pCMX-hRXRFL, pCMX-GALDBD-rFXRLBD and other pCUX-GALDBD-NR LBDs (hRXRα, hPPARαγδ, mPXR, hPXR, hLXRα, HTRβ, hRARβ, mCAR, mERR3 and hVDR) have been described elsewhere (Blumberg et al. (1998). SXR, a novel steroid and xenobiotic-sensing nuclear receptor. Genes Dev. 12(20), 3195-205). The reporter plasmids pMH2004-TK-luc, pTKECRE*6-luc, pTKER-8*2-luc and pMRP-2-luc also have been described elsewhere. The hPLTP-luc promoter was kindly provided by Dr Dennis Dowhan and the hIBABP-luc promoter was created from a plasmid provided by Dr Philippe Besnard.
as §1
Cell-based transcriptional activation assays using chimeric nuclear hormone receptor (NHR) constructs were established to measure the selectivity of the compounds to FXR relative to other NHRs (Forman et al. (1995). Identification of a nuclear receptor that is activated by farnesol metabolites. Cell 81, 687-693). These assays used fusion proteins with the yeast GAL4 DNA binding domain connected to the ligand-binding domain (LBD) of NHRs. These constructs were co-transfected with a thymidine kinase C minimal promoter reporter vector containing four copies of the GAL4 binding site. Titration experiments were then performed using the identified compounds. […] Addition of RXR had no effect on the activation potential of fexaramine, fexarine, fexarene in this assay.

| SMILES | activation of IBABP promoter (mouse FXR) [fold] | concentration of maximum efficacy (mouse FXR) [µM] | activation of chimeric FXR construct (GAL4-FXR LBD) | activity on natural promoters (mouse FXR) | effect of addition of RXR on activation potential (GAL4-FXR LBD) | selectivity for FXR relative to other NHRs (GAL4-FXR LBD) | efficacy compared with GW4064 (GAL4-FXR LBD) |
| --- | --- | --- | --- | --- | --- | --- | --- |
| CC(C)c1onc(-c2c(Cl)cccc2Cl)c1COc1ccc(/C=C/c2cccc(C(=O)O)c2)c(Cl)c1 [GW4064, reference compound] | 28 | 1 | activate | – | – | – | – |
| COC(=O)/C=C/c1cccc(N(Cc2ccc(-c3ccccc3OC)cc2)C(=O)C(C)C)c1 [SRI-1] | – | – | little or no activity | little or no activity | – | – | – |
| COC(=O)/C=C/c1cccc(N(Cc2ccc(-c3ccc(C(C)(C)C)cc3)cc2)C(=O)C(C)C)c1 [SRI-2] | – | – | little or no activity | little or no activity | – | – | – |
| COC(=O)/C=C/c1cccc(N(Cc2ccc(-c3ccc4c(c3)OCO4)cc2)C(=O)C2CCCCC2)c1 [fexarine] | 28 | 1 | activate | – | no effect | highly selective for FXR | more efficacious ligands for FXR than GW4064 |

Continued, in another order:

| activation of IBABP promoter (mouse FXR) [fold] | concentration of maximum efficacy (mouse FXR) [µM] | activation of chimeric FXR construct (GAL4-FXR LBD) | activity on natural promoters (mouse FXR) | effect of addition of RXR on activation potential (GAL4-FXR LBD) | selectivity for FXR relative to other NHRs (GAL4-FXR LBD) | SMILES | efficacy compared with GW4064 (GAL4-FXR LBD) |
| --- | --- | --- | --- | --- | --- | --- | --- |
| 28 | 1 | activate | – | no effect | highly selective for FXR | COC(=O)/C=C/c1cccc(N(Cc2ccc(-c3ccc(N(C)C)cc3)cc2)C(=O)C2CCCCC2)c1 [fexaramine] | more efficacious ligands for FXR than GW4064 |
| 28 | 1 | activate | – | no effect | highly selective for FXR | COC(=O)/C=C/c1cccc(N(Cc2ccc(/C=C/c3ccccc3)cc2)C(=O)C2CCCCC2)c1 [fexarene] | more efficacious ligands for FXR than GW4064 |
